From PMC10819887, “Production of AFB1 High-Specificity Monoclonal Antibody by Three-Stage Screening Combined with the De-Homologation of Antibodies and the Development of High-Throughput icELISA” (Toxins, 2023)
Several values for one entry are separate records, joined by “and”; a condition that tells them apart may be missing. Identical values can stand only once.

What was measured:
ZFG8 monoclonal antibody = test: icELISA working-condition optimization and standard curves (ZFG8, AFB1-BSA); format: binding, mouse
anti-AFB1 mAb (ZFG8) = format: binding, mouse

aflatoxin B1 [AFB1]
IC20-IC80 (ZFG8 monoclonal antibody): 0.04197 to 0.6299 ng/mL and 0.03329 to 0.9399 ng/mL
IC20-IC80 (linear detection range) (ZFG8 monoclonal antibody): 0.0422 to 1.293 ng/mL
IC50 (ZFG8 monoclonal antibody; pH 7.4): 0.1811 ng/mL
Cross-Reactivity (%) (anti-AFB1 mAb (ZFG8)): 100%
IC50 (anti-AFB1 mAb (ZFG8)): 0.3162 ng/mL
